Measured values reported in ChEMBL document CHEMBL3813665, “New cytotoxic and anti-inflammatory steroids from the soft coral Klyxum flaccidum” (Bioorg Med Chem Lett, 2016).

Assays:
[1] = Cytotoxicity against human DLD1 cells by Alamar blue assay; format: functional, cell-based; settings: DLD-1
HT-29 = assay: Cytotoxicity against human HT-29 cells by Alamar blue assay; format: functional, cell-based
A549 = assay: Cytotoxicity against human A549 cells by Alamar blue assay; format: functional, cell-based
K562 = assay: Cytotoxicity against human K562 cells by Alamar blue assay; format: functional, cell-based
P388 = assay: Cytotoxicity against mouse P388 cells by Alamar blue assay; format: functional, cell-based
[2] = Antiinflammatory activity in human neutrophils assessed as inhibition of fMLP/CB-induced superoxide anion generation at 10 uM after 5 mins by ferricytochrome c based spectrophotometric analysis; format: functional; settings: Neutrophil
[3] = Antiinflammatory activity in human neutrophils assessed as inhibition of fMLP/CB-induced superoxide anion generation after 5 mins by ferricytochrome c based spectrophotometric analysis; format: functional, cell-based; settings: Neutrophil
[4] = Antiinflammatory activity in human neutrophils assessed as inhibition of fMLP/CB-induced elastase release using MeO-Suc-Ala-Ala-Pro-Val-p-nitroanilide as substrate at 10 uM after 5 mins by […] analysis; format: functional; settings: Neutrophil
[5] = Antiinflammatory activity in human neutrophils assessed as inhibition of fMLP/CB-induced elastase release using MeO-Suc-Ala-Ala-Pro-Val-p-nitroanilide as substrate after 5 mins by […] analysis; format: functional, cell-based; settings: Neutrophil

SMILES	IC50 [3] [µM]	IC50 [5] [µM]	IC50 [1] [µM]	IC50 (HT-29) [µM]	IC50 (A549) [µM]	IC50 (K562) [µM]	IC50 (P388) [µM]	inhibition at 10 µM [2] [%]	inhibition at 10 µM [4] [%]
CC(C)[C@@H](C)[C@@]1(C)C[C@@H]1[C@@H](C)[C@H]1CC[C@H]2[C@H]3[C@H]([C@H](O)[C@H](O)[C@]12C)[C@@]1(C)CC[C@H](O)CC1=C[C@@H]3O	–	–	> 40	> 40	> 40	> 40	15.5	–	–
O=c1cc(N2CCOCC2)oc2c(-c3ccccc3)cccc12 [LY-294002]	3.65	5.15	–	–	–	–	–	–	–
CC(C)[C@@H](C)[C@H](C)C[C@@](C)(O)C1=CC[C@H]2[C@@H]3CC=C4C[C@@H](O)CC[C@]4(C)[C@H]3[C@H](O)C[C@]12C	5.64	4.4	> 40	15.1	> 40	12.7	14.8	76.3	114
COc1cccc2c1C(=O)c1c(O)c3c(c(O)c1C2=O)C[C@@](O)(C(=O)CO)C[C@@H]3O[C@H]1C[C@H](N)[C@H](O)[C@H](C)O1 [DOXORUBICIN]	–	–	2.78	0.87	0.55	0.94	0.9	–	–

Now from value to compound, other results behind:

IC50 [3] [µM]	IC50 [5] [µM]	SMILES	IC50 [1] [µM]	IC50 (HT-29) [µM]	IC50 (A549) [µM]	IC50 (K562) [µM]	IC50 (P388) [µM]	inhibition at 10 µM [2] [%]	inhibition at 10 µM [4] [%]
> 10	> 10	CC(C)[C@@H](C)[C@@]1(C)C[C@@H]1[C@@H](C)[C@H]1CC[C@H]2[C@H]3[C@H]([C@H](O)C[C@]12C)[C@@]1(C)CC[C@H](O)CC1=C[C@@H]3O	> 40	> 40	> 40	> 40	> 40	11.1	21.8
> 10	> 10	CC(C)[C@@H](C)[C@@]1(C)C[C@@H]1[C@@H](C)[C@H]1CC[C@H]2[C@@H]3[C@@H](O)C=C4C[C@@H](O)CC[C@]4(C)[C@@]3(O)[C@H](O)C[C@]12C	> 40	> 40	> 40	> 40	> 40	-5.97	16.4
